Test results as given in patent publication US20240002313A1, “[11C]-LABELED ACYCLIC RETINOID, CENTRAL NERVOUS SYSTEM ACTIVATOR, AND PRODUCTION METHODS FOR SAME” (NATIONAL CENTER FOR GERIATRICS AND GERONTOLOGY, priority 2020, published 2024).
Each block holds one molecule with its values, some of them ahead of it.

Columns and labels:
[1] = PET pharmacokinetic test of 11C-labeled acyclic retinoids in cynomolgus monkeys; assay type: in vivo; conditions: cynomolgus monkey, i.v.
Experimental: (§1) The ^11C-labeled acyclic retinoid 4c and the ^11C-labeled peretinoin 3 synthesized by the methods described above were administered intravenously (i.v.) to Sprague-Dawley rats and cynomolgus monkeys as a PET probe, and PET images were photographed.

[2] = PET pharmacokinetic test of 11C-labeled acyclic retinoids in rats; assay type: in vivo, Sprague-Dawley rats; conditions: rat, i.v.
Experimental: as §1

[3] = test system: cerebral cortex-striatal tissue sections; experiment: Evaluation using K252a (TrkB inhibitor) of the cytoprotective effect against thrombin; assay type: cell-based, Wistar/ST rat; conditions: thrombin + K252a (3 μM)
Experimental: Thrombin is known to induce cerebral cortex cell death and striatal tissue atrophy. Therefore, an experiment for evaluating thrombin toxicity was performed. In other words, a coronal section having a thickness of 300 μm was prepared from a brain of a Wistar/ST rat aged 2 to 3 days after birth, a fan-shaped tissue piece including a cerebral cortex and striatum was cut out, and then left to stand on a porous membrane (Millicell-CM, Millipore Corporation), and culture was maintained at a gas-liquid interface under a conditions of 34° C./5% CO2 (medium composition: 50% minimal essential medium, 25% Hanks' balanced salt solution, 25% horse serum). […] PI fluorescence images were acquired using a fluorescence microscope (Keyence) 72 hours after a start of thrombin treatment, and a degree of cell death was evaluated using fluorescence intensity of a cortical region as an index (sections of 100 μM NMDA treated for 72 hours were provided for each experiment, and their PI fluorescence intensity was standardized as 100%). Further, an area of a striatal region in each tissue piece was measured from bright field images of cultured tissue pieces acquired before and after the thrombin treatment, and a rate of tissue atrophy due to the thrombin treatment was quantified. […]

[4] = test system: NMDA-type glutamate receptors; experiment: Calcium imaging of reactivity to NMDA in differentiated cells; assay type: cell-based, human; conditions: NT2-N cells, Fluo-8, 100 μM NMDA solution
Experimental: In order to confirm a statement of synaptic receptors in mature cells, a calcium influx via NMDA-type glutamate receptors was measured as follows.
A fluorescent calcium indicator Fluo-8 AM (AAT Bioquest) was dissolved in Mg-free HHBS (Hepes-buffered Hanks' balanced salt solution (1.26 mM CaCl2, 5.33 mM KCl, 0.44 mM KH2PO4, 4.17 mM NaHCO3, 137.93 mM NaCl, 0.34 mM Na2HPO4, 5.56 mM D-glucose, 20 mM HEPES, pH 7.4)) containing 0.1 μM glycine (4 μM, 2 μM, respectively). This solution (1 ml) was loaded into NT2-N cells under conditions of 37° C. and 5% CO2 (2 hours, 30 minutes, respectively), and fluo8 was loaded into the cells. Thereafter, an extracellular fluid was replaced with Mg-free HHBS containing 0.1 μM glycine, and it was used for the following measurement after being left in an incubator (37° C., 5% CO2) of a living cell time-lapse imaging device (BioStation IM-Q, Nikon) for 1 hour or more. For the NT2-N cells placed in the device, 5 to 10 fields of view to be analyzed were manually set, and for each field of view, fluorescence intensity was continuously recorded every 2 seconds for 5 minutes at an excitation wavelength of 480 nm/a fluorescence wavelength of 520 nm. Further, after a certain period of time elapsed from the start of recording, 100 μl of the 100 μM NMDA solution (Mg-free HHBS containing 0.1 μM glycine) prepared above was administered.

[5] = test system: cerebral cortex-striatal tissue sections; experiment: Inhibitory effect on thrombin toxicity in cultured brain slices; assay type: cell-based, Wistar/ST rat; conditions: 10, 20, 30 μM; thrombin 100 U/ml, 72 hours
Experimental: Thrombin is known to induce cerebral cortex cell death and striatal tissue atrophy. Therefore, an experiment for evaluating thrombin toxicity was performed. In other words, a coronal section having a thickness of 300 μm was prepared from a brain of a Wistar/ST rat aged 2 to 3 days after birth, a fan-shaped tissue piece including a cerebral cortex and striatum was cut out, and then left to stand on a porous membrane (Millicell-CM, Millipore Corporation), and culture was maintained at a gas-liquid interface under a conditions of 34° C./5% CO2 (medium composition: 50% minimal essential medium, 25% Hanks' balanced salt solution, 25% horse serum). […] PI fluorescence images were acquired using a fluorescence microscope (Keyence) 72 hours after a start of thrombin treatment, and a degree of cell death was evaluated using fluorescence intensity of a cortical region as an index (sections of 100 μM NMDA treated for 72 hours were provided for each experiment, and their PI fluorescence intensity was standardized as 100%). Further, an area of a striatal region in each tissue piece was measured from bright field images of cultured tissue pieces acquired before and after the thrombin treatment, and a rate of tissue atrophy due to the thrombin treatment was quantified.

[6] = test system: NT2 cells; experiment: Differentiation induction from stem cells to nerve cells; assay type: cell-based, human; conditions: peretinoin 3 10 μM, ATRA 1 μM or 10 μM
Experimental: NTERA-2 cl.D1 [NT2/D1] cells (ATCC CRL-1973) (hereinafter described as “NT2 cells”) derived from human pluripotent embryonic cancer were adhesion cultured in a maintenance culture medium (high glucose D-MEM (Sigma-Aldrich, D6429), 10% FBS, 100 U/ml penicillin/streptomycin) under conditions of 37° C. and 5% CO2 for 3 to 4 days on a 10 cm plastic dish until becoming confluent. The NT2 cells were exfoliated by Accutase (Innovative Cell Technologies, #AT104), passaged, and maintenance cultured for 50 days. The medium was changed three times a week. The maintenance cultured NT2 cells were dispersed in a petri dish for low-attached microorganisms (STAR SDish9015, RIKEN) at a concentration of 1.5×10^6 to 2.5×10^6/dish, and suspension cultured on a vibrator (100 rpm) under conditions of 37° C. and 5% CO2, and after one day, 1 μM or 10 μM ATRA was added to induce differentiation and form spheroids. After 14 days, the spheroids were recovered, seeded on a 10 cm dish coated with 5 μg/ml poly-D-lysine (PDL) (Sigma-Aldrich)/laminin (LAM) (iMatrix-511, Nippi), and adhesion cultured under conditions of 37° C. and 5% CO2. […]

[7] = test system: cerebral hemorrhage; experiment: Effect on cerebral hemorrhage pathology (collagenase injection into striatum); assay type: in vivo, ICR mouse
Experimental: A male ICR mouse aged 8 to 10 weeks was placed in a brain stereotaxic apparatus under triple anesthesia, and bleeding was induced by injecting 0.035 U of collagenase type VII (Sigma) into a fixed coordinate (2.3 mm lateral to a median, 0.2 mm posterior to a bregma suture, 3.5 mm below a skull) in the striatum over 2.5 minutes using a 30 gauge needle. After that, the surface of the skull was reduced with dental cement, and breeding was continued. The peretinoin 3 (40 mg/kg) was suspended in water together with 0.5% carboxymethyl cellulose, and administered intragastrically using an oral sonde three times in total 3, 27, and 51 hours after the bleeding induction. Note that for comparison, 0.5% carboxymethyl cellulose without the peretinoin 3 was also administered intragastrically in a similar manner. A degree of motor dysfunction in the mouse was evaluated by performing two types of motor function tests (beam walking test, modified limb-placing test) 6, 24, 48, and 72 hours after the bleeding induction. Further, after completion of the motor function test 72 hours later, the mouse was perfused and fixed under anesthesia, and the brain was extracted to prepare a frozen coronary section having a thickness of 16 μm. The effects of the peretinoin 3 were evaluated by identifying microglia, astrocytes, and neurons in the brain tissue, respectively, through immunohistochemistry using antibodies against Iba1, GFAP, and NeuN, and quantifying the number of cells in a given area or an immune reaction positive area.

[8] = Non Patent Literature 2 and 3; cited from earlier work
[9] = radioactivity in brain for each time
[10] = radioactivity in brain over time
[11] = 40 mg/kg intragastrically, 6, 24, 48, 72 hours after bleeding
[12] = 40 mg/kg intragastrically, brain taken 72 hours after bleeding

migration into the brain (PET image) ([1]; PET probe): migrated into a brain
start of migration into the brain after administration [1, 9]: within several minutes
accumulation in the brain compared with the concentration when uniformly distributed throughout the body [1, 10]: 3.0 times
migration into the brain (PET image) ([2]; PET probe): migrated into a brain
start of migration into the brain after administration [2, 9]: within several minutes
accumulation in the brain compared with the concentration when uniformly distributed throughout the body [2, 10]: 1.3 times
SMILES: CC(C)=CCC/C(C)=C/CC/C(C)=C/C=C/C([11CH3])=C/C(=O)O [^11C-labeled peretinoin 3]

SMILES: CC(C)=CCC/C(C)=C/CC/C(C)=C/C=C/C(C)=C/C(=O)O [peretinoin 3, (2E,4E,6E,10E)-3,7,11,15-tetramethylhexadeca-2,4,6,10,14-pentaenoic acid]
inhibitory effect on striatal atrophy in the presence of K252a [3]: not blocked by K252a
protective effect on cerebral cortex cells in the presence of K252a [3]: blocked by K252a
expression of NMDA-type glutamate receptors in induced nerve cells (calcium imaging, NMDA) [4]: expressed NMDA-type glutamate receptors
cerebral cortex cell death induced by thrombin (PI fluorescence) [5]: concentration-dependent and significantly suppressed
striatal tissue atrophy induced by thrombin [5]: concentration-dependent and significantly suppressed
number of cells expressing MAP2 without expressing nestin (differentiation induction into nerve cells) [6]: increased
changes in body weight after cerebral hemorrhage ([7]; 40 mg/kg intragastrically 3, 27, 51 hours after bleeding induction): suppressed weight loss
beam-walking test: fall rate [7, 11]: decrease
beam-walking test: score [7, 11]: increase
beam-walking test: walking width [7, 11]: increase
modified limb-placing test: deficit score [7, 11]: decrease
motor dysfunction ([7]; 40 mg/kg intragastrically, 24 to 72 hours after bleeding): significantly alleviated
accumulation of activated microglia around a hematoma (Iba1 immunohistochemistry) [7, 12]: significantly suppressed
shedding of nerve cells in the hematoma (NeuN immunohistochemistry) [7, 12]: suppressed

SMILES: CC1(C)CCC(C)(C)c2cc(NC(=O)c3ccc([11C](=O)O)cc3)ccc21 [^11C-labeled Am80]
intracerebral migration when used as a PET probe [8]: no intracerebral migration was observed

SMILES: CC1=C(/C=C/C(C)=C/C=C/C(C)=C/C(=O)O)C(C)(C)CCC1 [ATRA, All-trans-retinoic acid, reference compound]
expression of NMDA-type glutamate receptors in induced nerve cells (calcium imaging, NMDA) [4]: expressed NMDA-type glutamate receptors
number of cells expressing MAP2 without expressing nestin (differentiation induction into nerve cells) [6]: increased

SMILES: Cc1cc2c(cc1-n1nnc3cc([11C](=O)O)ccc31)C(C)(C)CCC2(C)C [^11C-labeled CBt-PMN]
intracerebral migration when used as a PET probe [8]: higher intracerebral migration than that of ^11C-labeled bexarotene
